Results from PubChem BioAssay (NCI).
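These data come from cells grown in 96-well plates and exposed to compound for 48 hours at five concentrations. GI50 is the concentration that inhibits growth by half. TGI: concentration producing complete growth inhibition.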

Tests used:
Test in all cases: NCI anticancer screen, dose series, 48 h
HCC-2998 colon = tested on: HCC-2998 colon
HS 578T breast = tested on: HS 578T breast
DU-145 prostate = tested on: DU-145 prostate
K-562 leukemia = tested on: K-562 leukemia
SK-MEL-28 melanoma = tested on: SK-MEL-28 melanoma
A498 renal = tested on: A498 renal
OVCAR-5 ovarian = tested on: OVCAR-5 ovarian
PC-3 prostate = tested on: PC-3 prostate
SNB-19 CNS = tested on: SNB-19 CNS
MOLT-4 leukemia = tested on: MOLT-4 leukemia

SMILES | GI50 (HCC-2998 colon) [µM] | TGI (HCC-2998 colon) [µM] | GI50 (HS 578T breast) [µM] | TGI (HS 578T breast) [µM] | GI50 (DU-145 prostate) [µM] | TGI (DU-145 prostate) [µM] | GI50 (K-562 leukemia) [µM] | TGI (K-562 leukemia) [µM] | GI50 (SK-MEL-28 melanoma) [µM] | TGI (SK-MEL-28 melanoma) [µM] | GI50 (A498 renal) [µM] | TGI (A498 renal) [µM] | GI50 (OVCAR-5 ovarian) [µM] | TGI (OVCAR-5 ovarian) [µM] | GI50 (PC-3 prostate) [µM] | TGI (PC-3 prostate) [µM] | GI50 (SNB-19 CNS) [µM] | TGI (SNB-19 CNS) [µM] | GI50 (MOLT-4 leukemia) [µM] | TGI (MOLT-4 leukemia) [µM]
O=C1CCC2(C=C(Br)C(=O)C(Br)=C2)O1 | 18.7 | 33.5 | 20.4 | 57.3 | 5.44 | 15.5 | 2.81 | 21.7 | 1.69 | 3.87 | 16.6 | 30.3 | 15 | 29.7 | 15.8 | 31.3 | 18.5 | 35.6 | 3.46 | > 23
CCN(CC)CCCCCCCNc1c2ccc(Cl)cc2nc2ccc(OC)cc12 | 1.76 | 3.22 | 1.79 | 4.39 | 0.66 | 2 | 0.258 | 0.835 | 1.91 | 3.64 | 1.2 | 2.51 | 1.78 | 7.55 | 0.843 | 2.85 | 1.75 | 5.84 | 0.372 | 2.32
COc1cc(/C=C/C(=O)c2ccc(Cl)cc2)ccc1OS(=O)(=O)c1ccc(C)cc1 | 12.4 | 26.7 | 3.99 | > 100 | 16.4 | 45.2 | 2.87 | 11.3 | 18.3 | 47.5 | 28.8 | > 100 | 16.7 | 33.2 | 3.6 | 15.5 | 9.53 | 23.2 | 2.76 | 7.74
Cc1cc(S(=O)(=O)Nc2nnc(-c3ccccc3)c(-c3ccccc3)n2)c(SCc2ccccc2)cc1Cl | 27.3 | 43.8 | 19.1 | 52.8 | 15.2 | 30.7 | 29.6 | > 100 | 22.6 | 40.7 | 19.8 | 39.1 | 24.8 | 50.3 | 21.2 | 58 | 25.7 | 52.7 | 15 | 36.8
CCN(CC)CCOc1ccc(/C=C2\CC3C4CC=C5C[C@@H](N6CCCC6)CC[C@]5(C)C4CC[C@]3(C)[C@H]2O)cc1OC (stereo not given in full) | 1.71 | 4.79 | 0.76 | 13.6 | 4.62 | 34.7 | 4.49 | > 100 | 20.5 | > 65.7 | 0.0502 | 1.46 | 24 | > 72.8 | 4.66 | 45.3 | 6.2 | > 63.5 | 2.2 | > 21.6
O=C(Nc1ccc(Cl)cc1)c1cc2ccccc2cc1O | 2.55 | 7.65 | 2.68 | 11.9 | 3.18 | > 100 | 3.02 | > 100 | 7.62 | > 100 | 2.23 | 8.37 | 4.07 | > 100 | 2.99 | > 100 | 4.19 | > 100 | 4.19 | > 100
CN(C)c1ccc2c3c(c(=O)oc2c1)CCC3 |  | > 100 |  | > 100 |  | > 100 |  | > 100 |  | > 100 |  | > 100 |  | > 100 |  | > 100 |  | > 100 |  | > 100
COc1ccc(/C=C\c2cc(OC)c(OC)c(OC)c2)cc1OCC(=O)Nc1nc2ccc(C(F)(F)F)cc2s1 | 4.23 | > 100 | 4.18 | > 100 | 2.51 | 6.56 | 3.3 | > 100 | 3 | > 100 | 2.81 | 18.6 | 5.98 | > 100 | 4.32 | > 100 | 5.03 | > 100 | 3.75 | > 100
C[C@]12CC[C@@H]3c4ccc(O)cc4CC[C@H]3[C@@H]1CC[C@@H]2NS(=O)(=O)Cc1ccc(Cl)cc1 | 2.99 | 8.14 | 2.4 | 7.46 | 3.99 | 16.8 | 2.99 | 21.3 | 2.01 | 4.22 | 1.29 | 3.87 | 3.76 | 14.2 | 2.64 | 15 | 3.66 | 47.1 | 2.62 | 31.3
O=C(Nc1ncc(Cc2ccccc2Cl)s1)c1ccc2c(c1)OCCO2 | 0.468 | > 55.5 | 0.354 | 35.5 | 0.384 | 17.5 | 0.183 | > 100 | 1.66 | > 59 | 0.151 | 0.693 | 0.747 | > 100 | 0.417 | > 100 | 0.548 | > 45.5 | 0.581 | > 100
